Key:
[1] = tested on: CD3+ T cells obtained from HLA-A2+ donors; experiment: Induction and phenotypic analysis of peptide-specific CTL by repeated peptide stimulation; type: cell-based, human
Description: The peptide-specific CTL were generated from different HLA-A2^+ normal donors for the evaluation of the functional activities targeting MM cell lines. To generate the peptide-specific CTL, mature dendritic cells (mDC) generated from the same donor were resuspended in serum-free AIM-V media and pulsed with 50 μg/ml of the Heteroclitic #4 BCMA72-80 (YLMFLLRKI (SEQ ID NO: 13)) peptide or “Heteroclitic #3 TACI154-162 (YLSADQVAL (SEQ ID NO: 16))” peptide, overnight at 37° C., 5% CO2 in humidified air. The peptide-pulsed mDC were washed, counted, irradiated at 10 Gy and used to prime CD3^+ T cells at a 1:20 antigen-presenting cells/peptide-to-CD3^+ T cell ratio in AIM-V media supplemented with 10% human AB serum. […] To maintain the T cells ex vivo, IL-2 (50 U/ml) was added to the cultures two days after the second stimulation. Control T cell cultures were maintained under the same culture conditions in the presence of IL-2 (50 U/ml), but without peptide stimulation. Phenotype of the resulting CTL was evaluated one week after each cycle of peptide stimulation. […] The BCMA peptide-specific CTL cultures contained a higher percentage of CD8^+ T cells (˜80%) upon 4 cycle of peptide stimulation compared to non-peptide stimulated control T cells (˜20%) (FIGS. 8A-8C).
Antigen-specific CTL can be phenotypically identified as activated/memory T cells from naïve T cells by their expression of distinct cell surface antigens. The phenotype of the BCMA-CTL were examined as potential effector cells by analyzing the phenotype of naïve and memory cells. BCMA peptide-specific CTL were generated by repeated stimulation of HLA-A2^+ normal donor's CD3^+ T cells weekly with antigen-presenting cells pulsed with 50 μg/ml heteroclitic BCMA72-80 (YLMFLLRKI (SEQ ID NO: 13)). One week after each peptide stimulation, the resulting CTL were evaluated for their phenotypic profile by flow cytometry.
BCMA peptide-specific CTL (BCMA-CTL) were generated ex vivo by repeated stimulation of CD3^+ T cells obtained from HLA-A2^+ donors with peptide-pulsed antigen-presenting cells (APC). In brief, peptide (50 μg/ml)-pulsed APC were irradiated (10 Gy) and used to stimulate T cells at a 1 APC/peptide: 20 T cell ratio. The T cell cultures were restimulated every 7 days and maintained in AIM-V medium supplemented with 10% human AB serum (BioWhittaker) in the presence of IL-2 (50 units/ml).
Phenotypic characterization was performed on BCMA-CTL after staining with Live/Dead Aqua stain kit and fluorochrome conjugated anti-human mAbs and Tetramer-PE. Alternatively, the MM and breast cancer cell lines were stained with fluorochrome-conjugated BCMA or HLA-A2 mAb. After staining, the cells were washed, fixed in 2% paraformaldehyde, and analyzed by flow cytometry.
TACI peptide-specific CTL (TACI-CTL) were generated ex vivo by repeated stimulation of enriched CD3^+ T cells obtained from HLA-A2^+ donors with peptide-pulsed antigen-presenting cells (APC). In brief, peptide (50 μg/ml)-pulsed APC were irradiated (10 Gy) and used to stimulate T cells at a 1:20 APC/peptide-to-T cell ratio. The T cell cultures were restimulated every 7 days and maintained in AIM-V medium supplemented with 10% human AB serum (BioWhittaker) in the presence of IL-2 (50 units/ml).
Phenotypic characterization was performed on the MM target cells to conform TACI expression. Phenotypic characterization was performed on the TACI-CTL after staining with Live/Dead Aqua stain kit and fluorochrome conjugated anti-human mAbs. After staining, the cells were washed, fixed in 2% paraformaldehyde, and analyzed by flow cytometry.

HLA-A2 molecule = target: T1, HLA-A2 molecule (Homo sapiens, UniProt P04439, D140Y/D185E/D98H/E176V/E277Q/G131W/G231S/I119V/I121R/I166T/I218V/L300P/L318F/N151K/N90K/P208A/P217A/Q86G/Q94H/R138H/R169H/T345S); experiment: HLA-A2 binding affinity assay on peptide-pulsed T2 cells (HLA-A2 up-regulation, flow cytometry MFI)
T1 construct: endogenous in cells; host or cells: T2 cell line (human B and T cell hybrid), provided by Dr. J. Molldrem
Description: The listed BCMA peptides were evaluated for HLA-A2-specific binding capacity using the T2 cell line. In the assay, T2 cells were washed, resuspended in serum-free AIM-V medium to a final concentration of 1×10^6 cells/ml and transferred into wells of a 24-well tissue culture plate. The cells were pulsed with different concentrations of respective BCMA peptide (0-200 μg/ml) plus 3 μg/ml human β2-microglobulin (Sigma) and incubated at 37° C., 5% CO2 in humidified air. Following overnight incubation, the cells were washed, stained with mouse anti-human HLA-A2-FITC mAb for 15 minutes at 4° C., washed and analyzed using a FACSort™ flow cytometer with CellQuest™ v2.1 software (Becton Dickinson, San Jose, Calif.). […] Among the BCMA peptides evaluated, “#4. […] (FIG. 2).
T2 cells were pulsed overnight with various doses of peptide plus β2-microglobulin (3 μg/ml) (Sigma, St Louis, Mo.). Following overnight incubation, the cells were stained with HLA-A2-PE mAb and analyzed using a FACSCanto™ flow cytometer (BD). Peptide/HLA-A2 complex stability was measured on peptide loaded T2 cells at 0, 2, 4, 6 and 14 hours post-brefeldin A treatment by staining with HLA-A2-PE mAb and flow cytometric analysis.
T2 cells were pulsed overnight with various concentrations of peptide plus β2-microglobulin (3 μg/ml) (Sigma, St Louis, Mo.). Following overnight incubation, the cells were stained with HLA-A2-PE mAb and analyzed using a FACSCanto™ flow cytometer (BD). The stability of peptide/HLA-A2 complex binding was measured on peptide loaded T2 cells at 0, 2, 4, 6 and 14 hours post-brefeldin A treatment followed by staining with HLA-A2-PE mAb and flow cytometric analysis.

[2] = Donor 1, after 2 cycles of peptide stimulation
[3] = Donor 1, after 4 cycles of stimulation
[4] = Donor 1, upon 4 cycles of stimulation
[5] = Donor 2, after 2 cycles of peptide stimulation
[6] = Donor 2, after 4 cycles of stimulation
[7] = Donor 2, upon 4 cycles of stimulation

For “YLMFLLRKI [heteroclitic BCMA72-80, heteroclitic BCMA peptide]”, the “Naïve (CD45RO-CCR7+) within CD8+ T cells” value [1, 2] was 37.4%, the “central memory (CM; CD45RO+CCR7+) within CD8+ T cells” value [1, 2] was 32.1% and the “central memory (CM) within CD8+ T cells” value [1, 3] was 44.2%. For the same sequence, the “effector memory (EM; CD45RO+CCR7-) within CD8+ T cells” value [1, 3] was 54.6%, the “frequency of memory CD3+CD8+ T cells” value [1, 4] was 86% and the “frequency of naive CD3+CD8+ T cells” value [1, 4] was 2%. For the same sequence, the “Naïve (CD45RO-CCR7+) within CD8+ T cells” value [1, 5] was 19.0%, the “central memory (CM) within CD8+ T cells” value [1, 5] was 49.6% and the “central memory (CM) within CD8+ T cells” value [1, 6] was 18.3%. For the same sequence, the “effector memory (EM) within CD8+ T cells” value [1, 6] was 77.6%, the “frequency of memory CD3+CD8+ T cells” value [1, 7] was 92% and the “frequency of naive CD3+CD8+ T cells” value [1, 7] was 2%. For the same sequence, the “frequency of effector memory (CD45RO+/CCR7-) CD3+CD8+ T cells” value ([1]; after 4 cycles of peptide stimulation) was “increased”, the “percentage of CD8+ T cells in peptide-specific CTL cultures” value ([1]; upon 4 cycle of peptide stimulation, 50 μg/ml) was roughly 80% and the “HLA-A2 binding affinity, heteroclitic vs native peptide” value (HLA-A2 molecule; Example 4, FIGS. 4 and 5) was “increased from their native peptide”. For the same sequence, the “change in HLA-A2 binding affinity of heteroclitic BCMA peptide compared to native peptide” value (HLA-A2 molecule; Example 12, n=3, p<0.05) was “highest increase in HLA-A2 binding affinity”.

Reference: US11517591B2, “Immunogenic peptides specific to BCMA and TACI antigens” (Dana-Farber Cancer Institute, Inc., priority 2017, dated 2022)
